From patent US20040156869A1, “2-substituted quinazolin-4-ylamine analogues” (Neurogen Corporation, priority 2002, published 2004)

The compounds below were run against human capsaicin receptor (VR1) (Homo sapiens, UniProt Q8NER1) (assay: Capsaicin receptor binding assay ([3H]RTX competition, VR1-transfected HEK293 membranes)).
Chain of human capsaicin receptor (VR1) (Q8NER1 whole entry): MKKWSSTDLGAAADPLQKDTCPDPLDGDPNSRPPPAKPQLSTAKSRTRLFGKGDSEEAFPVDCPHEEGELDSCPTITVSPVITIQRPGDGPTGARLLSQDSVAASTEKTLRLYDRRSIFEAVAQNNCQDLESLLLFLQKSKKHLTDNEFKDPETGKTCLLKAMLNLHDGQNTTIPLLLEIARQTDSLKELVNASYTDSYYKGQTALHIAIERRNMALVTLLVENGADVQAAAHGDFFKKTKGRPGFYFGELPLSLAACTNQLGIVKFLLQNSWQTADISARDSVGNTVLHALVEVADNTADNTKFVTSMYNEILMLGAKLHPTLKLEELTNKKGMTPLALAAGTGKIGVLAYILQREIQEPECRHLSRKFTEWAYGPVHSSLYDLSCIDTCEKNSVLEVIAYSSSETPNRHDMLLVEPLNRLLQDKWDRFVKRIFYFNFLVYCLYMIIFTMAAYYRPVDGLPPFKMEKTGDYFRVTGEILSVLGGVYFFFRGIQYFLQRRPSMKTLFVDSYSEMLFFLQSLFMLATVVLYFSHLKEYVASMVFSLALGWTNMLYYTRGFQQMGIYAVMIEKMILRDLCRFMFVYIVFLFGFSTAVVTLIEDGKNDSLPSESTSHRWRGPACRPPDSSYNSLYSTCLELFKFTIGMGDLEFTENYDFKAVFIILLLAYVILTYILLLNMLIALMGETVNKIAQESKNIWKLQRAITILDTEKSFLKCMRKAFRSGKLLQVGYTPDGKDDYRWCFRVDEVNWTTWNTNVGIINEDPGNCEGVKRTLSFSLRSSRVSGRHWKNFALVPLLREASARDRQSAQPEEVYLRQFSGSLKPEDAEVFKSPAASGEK

Ki, < 1 µM:
CCCOCc1cc(Nc2ccc(C(F)(F)F)cc2)c2ccc(-c3ncccc3C(F)(F)F)nc2n1 [Compound 313, [2-Propoxymethyl-7-(3-trifluoromethyl-pyridin-2-yl)-[1,8]naphthyridin-4-yl]-(4-trifluoromethyl-phenyl)-amine]
COCc1nc(Nc2ccc(C(C)(C)COC)cc2)c2ccc(-c3ncccc3Cl)nc2n1 [Compound 61, [7-(3-Chloro-pyridin-2-yl)-2-methoxymethyl-pyrido[2,3-d]pyrimidin-4-yl]-[4-(2-methoxy-1,1-dimethyl-ethyl)-phenyl]-amine]
OCC1CCCN(Cc2nc(Nc3ccc(C(F)(F)F)cc3)c3ccc(-c4ncccc4C(F)(F)F)cc3n2)C1 (stereo not shown) [Compound 502, {1-[4-(4-Trifluoromethyl-phenylamino)-7-(3-trifluoromethyl-pyridin-2-yl)-quinazolin-2-ylmethyl]-piperidin-3-yl}-methanol]
Cc1cccnc1-c1ccc2c(Nc3ccc(C(C)(C)C#N)cc3)nc(C3CCOC3)nc2n1 (stereo not shown) [Compound 175, 2-Methyl-2-{4-[7-(3-methyl-pyridin-2-yl)-2-(tetrahydro-furan-3-yl)-pyrido[2,3-d]pyrimidin-4-ylamino]-phenyl}-propionitrile]
CCNC(=O)c1nc(Nc2ccc(C(F)(F)F)cc2)c2ccc(-c3ncccc3C(F)(F)F)nc2n1 [Compound 450, 4-(4-Trifluoromethyl-phenylamino)-7-(3-trifluoromethyl-pyridin-2-yl)-pyrido[2,3-d]pyrimidine-2-carboxylic acid ethylamide]
C[C@@H]1CN(Cc2nc(Nc3ccc(C(F)(F)F)cc3)c3cnc(-c4ccccc4C(F)(F)F)cc3n2)C[C@H](C)O1 [Compound 612, [2-(2,6-Dimethyl-morpholin-4-ylmethyl)-7-(2-trifluoromethyl-phenyl)-pyrido[4,3-d]pyrimidin-4-yl]-(4-trifluoromethyl-phenyl)-amine (cis)]
COCc1nc(Nc2ccc(C(F)(F)F)c(C)c2)c2ccc(-c3ncccc3C(F)(F)F)nc2n1 [Compound 182, [2-Methoxymethyl-7-(3-trifluoromethyl-pyridin-2-yl)-pyrido[2,3-d]pyrimidin-4-yl]-(3-methyl-4-trifluoromethyl-phenyl)-amine]
O=C(O)C1CCN(C(=O)c2nc(Nc3ccc(C(F)(F)F)cc3)c3ccc(-c4ncccc4C(F)(F)F)nc3n2)CC1 [Compound 767, 1-[4-(4-Trifluoromethyl-phenylamino)-7-(3-trifluoromethyl-pyridin-2-yl)-pyrido[2,3-d]pyrimidine-2-carbonyl]-piperidine-4-carboxylic acid]
FC(F)(F)c1ccc(Nc2nc(COC3CCOCC3)nc3cc(-c4ncccc4C(F)(F)F)ccc23)cn1 [Compound 154, [2-(Tetrahydro-pyran-4-yloxymethyl)-7-(3-trifluoromethyl-pyridin-2-yl)-quinazolin-4-yl]-(6-trifluoromethyl-pyridin-3-yl)-amine]
C=CCN(C)CCc1nc(Nc2ccc(C(F)(F)F)cc2)c2ccc(-c3ncccc3C(F)(F)F)cc2n1 [Compound 410, [2-[(Allyl-methyl-amino)-ethyl]-7-(3-trifluoromethyl-pyridin-2-yl)-quinazolin-4-yl]-(4-trifluoromethyl-phenyl)-amine]
COCc1nc(Nc2ccc(C(F)(F)F)c(C)c2)c2ccc(-c3ncccc3C)nc2n1 [Compound 198, [2-Methoxymethyl-7-(3-methyl-pyridin-2-yl)-pyrido[2,3-d]pyrimidin-4-yl]-(3-methyl-4-trifluoromethyl-phenyl)-amine]
CCc1ccc(Nc2nc(CN3CC(C)O[C@H](C)C3)nc3cc(-c4ncccc4C(F)(F)F)ccc23)cc1 (stereo in doubt) [Compound 653, (R,R)-[2-(2,6-Dimethyl-morpholin-4-ylmethyl)-7-(3-trifluoromethyl-pyridin-2-yl)-quinazolin-4-yl]-(4-ethyl-phenyl)-amine]
CC(c1ccc(Nc2nc(COCc3ccccc3)nc3cc(-c4ncccc4C(F)(F)F)ccc23)cc1)C(F)(F)F (stereo not shown) [Compound 23, [2-Benzyloxymethyl-7-(3-trifluoromethyl-pyridin-2-yl)-quinazolin-4-yl]-[4-(2,2,2-trifluoro-1-methyl-ethyl)-phenyl]-amine]
COCc1cc(Nc2ccc(F)cc2)c2ccc(-c3ncccc3C(F)(F)F)nc2n1 [Compound 303, (4-Fluoro-phenyl)-[2-methoxymethyl-7-(3-trifluoromethyl-pyridin-2-yl)-[1,8]naphthyridin-4-yl]-amine]
CN(C)CCCN(C)Cc1nc(Nc2ccc(C(F)(F)F)cc2)c2ccc(-c3ncccc3C(F)(F)F)cc2n1 [Compound 706, N,N,N′-Trimethyl-N′-[4-(4-trifluoromethyl-phenylamino)-7-(3-trifluoromethyl-pyridin-2-yl)-quinazolin-2-ylmethyl]-propane-1,3-diamine]
O=S(=O)(c1ccc(Nc2nc(COC3CCOCC3)nc3cc(-c4ncccc4C(F)(F)F)ccc23)cc1)N1CCOCC1 [Compound 141, [4-(Morpholine-4-sulfonyl)-phenyl]-[2-(tetrahydro-pyran-4-yloxymethyl)-7-(3-trifluoromethyl-pyridin-2-yl)-quinazolin-4-yl]-amine]
C[C@@H]1CN(Cc2nc(Nc3ccc(Cl)cc3)c3ccc(-c4ncccc4C(F)(F)F)cc3n2)C[C@@H](C)O1 [Compound 654, (R,R)-(4-Chloro-phenyl)-[2-(2,6-dimethyl-morpholin-4-ylmethyl)-7-(3-trifluoromethyl-pyridin-2-yl)-quinazolin-4-yl]-amine]
COCc1nc(Nc2ccc(Cl)cc2)c2ccc(-c3ncccc3C(F)(F)F)nc2n1 [Compound 287, (4-Chloro-phenyl)-[2-methoxymethyl-7-(3-trifluoromethyl-pyridin-2-yl)-pyrido[2,3-d]pyrimidin-4-yl]-amine]
CC(C)[C@H](OCc1nc(Nc2ccc(C(C)(C)C)cc2)c2ccc(-c3ncccc3C(F)(F)F)cc2n1)C(=O)O [Compound 230, (S)-2-[4-(4-tert-Butyl-phenylamino)-7-(3-trifluoromethyl-pyridin-2-yl)-quinazolin-2-ylmethoxy]-3-methyl-butyric acid]
CC1CN(CCc2nc(Nc3ccc(C(F)(F)F)cc3)c3ccc(-c4ncccc4C(F)(F)F)cc3n2)CC(C)O1 (stereo not shown) [Compound 561, [2-[2-(2,6-Dimethyl-morpholin-4-yl)-ethyl]-7-(3-trifluoromethyl-pyridin-2-yl)-quinazolin-4-yl]-(4-trifluoromethyl-phenyl)-amine]
OC1CCN(CCCc2nc(Nc3ccc(C(F)(F)F)cc3)c3ccc(-c4ncccc4C(F)(F)F)cc3n2)CC1 [Compound 570]
CN(C(C)(C)C)S(=O)(=O)c1ccc(Nc2nc(CO)nc3cc(-c4ncccc4C(F)(F)F)cnc23)cc1 [Compound 203, N-tert-Butyl-4-[2-hydroxymethyl-7-(3-trifluoromethyl-pyridin-2-yl)-pyrido[3,2-d]pyrimidin-4-ylamino]-N-methyl-benzenesulfonamide]
COCCNCc1nc(Nc2ccc(C(F)(F)F)cc2)c2ccc(-c3ncccc3C(F)(F)F)cc2n1 [Compound 535, [2-[(2-Methoxy-ethylamino)-methyl]-7-(3-trifluoromethyl-pyridin-2-yl)-quinazolin-4-yl]-(4-trifluoromethyl-phenyl)-amine]
COCc1nc(Nc2ccc(C(C)(C)C)cc2)c2ccc(-c3ncccc3C(F)(F)F)nc2n1 [Compound 107, (4-tert-Butyl-phenyl)-[2-methoxymethyl-7-(3-trifluoromethyl-pyridin-2-yl)-pyrido[2,3-d]pyrimidin-4-yl]-amine]
CC1CCN(Cc2nc(Nc3ccc(C(F)(F)F)nc3)c3ccc(-c4ncccc4C(F)(F)F)cc3n2)CC1 [Compound 360, [2-(4-Methyl-piperidin-1-ylmethyl)-7-(3-trifluoromethyl-pyridin-2-yl)-quinazolin-4-yl]-(6-trifluoromethyl-pyridin-3-yl)-amine]
CCCN(CCC)Cc1nc(Nc2ccc(C(F)(F)F)cc2)c2ncc(-c3ncccc3C(F)(F)F)cc2n1 [Compound 664, [2-Dipropylaminomethyl-7-(3-trifluoromethyl-pyridin-2-yl)-pyrido[3,2-d]pyrimidin-4-yl]-(4-trifluoromethyl-phenyl)-amine]
CCOC(=O)c1nc(Nc2ccc(C(C)(C)C)cc2)c2ccc(-c3ncccc3C)nc2n1 [Compound 185, 4-(4-tert-Butyl-phenylamino)-7-(3-methyl-pyridin-2-yl)-pyrido[2,3-d]pyrimidine-2-carboxylic acid ethyl ester]
FC(F)(F)c1ccc(Nc2nc(CN3CCCCCC3)nc3cc(-c4ncccc4C(F)(F)F)cnc23)cc1 [Compound 659, [2-Azepan-1-ylmethyl-7-(3-trifluoromethyl-pyridin-2-yl)-pyrido[3,2-d]pyrimidin-4-yl]-(4-trifluoromethyl-phenyl)-amine]
O=C(O)CCCNC(=O)c1nc(Nc2ccc(C(F)(F)F)cc2)c2ccc(-c3ncccc3C(F)(F)F)nc2n1 [Compound 766, 4-{[4-(4-Trifluoromethyl-phenylamino)-7-(3-trifluoromethyl-pyridin-2-yl)-pyrido[2,3-d]pyrimidine-2-carbonyl]-amino}-butyric acid]
CC(C)COCc1cc(Nc2ccc(C(F)(F)F)cc2)c2ccc(-c3ncccc3C(F)(F)F)nc2n1 [Compound 301, [2-Isobutoxymethyl-7-(3-trifluoromethyl-pyridin-2-yl)-[1,8]naphthyridin-4-yl]-(4-trifluoromethyl-phenyl)-amine]
FC(F)(F)c1ccc(Nc2nc(CCN3CCOCC3)nc3cc(-c4ncccc4C(F)(F)F)ccc23)cc1 [Compound 400, [2-Morpholin-4-ylethyl-7-(3-trifluoromethyl-pyridin-2-yl)-quinazolin-4-yl]-(4-trifluoromethyl-phenyl)-amine]
